Reference: PubChem BioAssay AID1963958 (Molecular Pharmacology Branch, DTP, NCI, 2024)

Tested on: MDA-MB-231 multicell spheroids, viability
Experiment: Anticancer human tumor MDA-MB-231 cell line growth inhibition [PI3K];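 also: spheroids exposed to agents for seven days before reading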;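 as to viability, T/C: percent of vehicle control luminescence with DMSO treated spheroids as 100%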
Conditions: for IC50: curve of first compound; for viability, T/C: stronger effect = lower value
Outline: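 Viability of mixed-cell spheroids was determined after exposure to pairwise combinations, one partner being inavolisib, alpelisib, duvelisib or copanlisib. Highest tested concentration matched clinical Cmax where known and 10 microM where not, descending in half-log steps.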

[1] = second compound 0.0316 µM, first compound 0.0316 µM
[2] = second compound 0.0316 µM, first compound 0.1 µM
[3] = second compound 0.0316 µM, first compound 0.316 µM
[4] = second compound 0.0316 µM, first compound 1 µM
[5] = second compound 0.0316 µM, first compound 3.16 µM
[6] = second compound 0.0316 µM, first compound 10 µM
[7] = second compound 0.1 µM, first compound 0.0316 µM
[8] = second compound 0.1 µM, first compound 0.1 µM
[9] = second compound 0.1 µM, first compound 0.316 µM
[10] = second compound 0.1 µM, first compound 1 µM
[11] = second compound 0.1 µM, first compound 3.16 µM
[12] = second compound 0.1 µM, first compound 10 µM
[13] = second compound 0.316 µM, first compound 0.0316 µM
[14] = second compound 0.316 µM, first compound 0.1 µM
[15] = second compound 0.316 µM, first compound 0.316 µM
[16] = second compound 0.316 µM, first compound 1 µM
[17] = second compound 0.316 µM, first compound 3.16 µM
[18] = second compound 0.316 µM, first compound 10 µM
[19] = second compound 1 µM, first compound 0.0316 µM
[20] = second compound 1 µM, first compound 0.1 µM
[21] = second compound 1 µM, first compound 0.316 µM
[22] = second compound 1 µM, first compound 1 µM
[23] = second compound 1 µM, first compound 3.16 µM
[24] = second compound 1 µM, first compound 10 µM
[25] = second compound 3.16 µM, first compound 0.0316 µM
[26] = second compound 3.16 µM, first compound 0.1 µM
[27] = second compound 3.16 µM, first compound 0.316 µM
[28] = second compound 3.16 µM, first compound 1 µM
[29] = second compound 3.16 µM, first compound 3.16 µM
[30] = second compound 3.16 µM, first compound 10 µM
[31] = second compound 10 µM, first compound 0.0316 µM
[32] = second compound 10 µM, first compound 0.1 µM
[33] = second compound 10 µM, first compound 0.316 µM
[34] = second compound 10 µM, first compound 1 µM
[35] = second compound 10 µM, first compound 3.16 µM
[36] = second compound 10 µM, first compound 10 µM

Question: Which IC50 (second compound 0.0316 µM) does the source give for `CC1(C)CCC(CN2CCN(c3ccc(C(=O)NS(=O)(=O)c4ccc(NCC5CCOCC5)c([N+](=O)[O-])c4)c(Oc4cnc5[nH]ccc5c4)c3)CC2)=C(c2ccc(Cl)cc2)C1` + Cc1nc(NC(=O)N2CCCC2C(N)=O)sc1-c1ccnc(C(C)(C)C(F)(F)F)c1 here?
Answer: 6.18 µM

Question: And the IC50 (second compound 0.1 µM)?
Answer: 5.98 µM

Question: And the IC50 (second compound 0.316 µM)?
Answer: 5.8 µM

Question: And the IC50 (second compound 1 µM)?
Answer: 4.92 µM

Question: And the IC50 (second compound 3.16 µM)?
Answer: 4.36 µM

Question: What about the IC50 (second compound 10 µM) of the same compound?
Answer: 4.29 µM

Question: And the viability, T/C [1]?
Answer: 93.7%

Question: And the viability, T/C [2]?
Answer: 101%

Question: What about the viability, T/C [3] of the same compound?
Answer: 96%

Question: What about the viability, T/C [4] of the same compound?
Answer: 101%

Question: And the viability, T/C [5]?
Answer: 107%

Question: And the viability, T/C [6]?
Answer: 14.4%

Question: What about the viability, T/C [7] of the same compound?
Answer: 89.2%

Question: What about the viability, T/C [8] of the same compound?
Answer: 90.3%

Question: What about the viability, T/C [9] of the same compound?
Answer: 87.7%

Question: What about the viability, T/C [10] of the same compound?
Answer: 90.8%

Question: What about the viability, T/C [11] of the same compound?
Answer: 97%

Question: And the viability, T/C [12]?
Answer: 16.8%

Question: What about the viability, T/C [13] of the same compound?
Answer: 77.9%

Question: What about the viability, T/C [14] of the same compound?
Answer: 79.6%

Question: And the viability, T/C [15]?
Answer: 79.2%

Question: And the viability, T/C [16]?
Answer: 79.6%

Question: What about the viability, T/C [17] of the same compound?
Answer: 83.5%

Question: And the viability, T/C [18]?
Answer: 22.9%

Question: What about the viability, T/C [19] of the same compound?
Answer: 72.5%

Question: What about the viability, T/C [20] of the same compound?
Answer: 73.4%

Question: And the viability, T/C [21]?
Answer: 71.7%

Question: What about the viability, T/C [22] of the same compound?
Answer: 73.4%

Question: What about the viability, T/C [23] of the same compound?
Answer: 74%

Question: What about the viability, T/C [24] of the same compound?
Answer: 13.1%

Question: What about the viability, T/C [25] of the same compound?
Answer: 69.8%

Question: What about the viability, T/C [26] of the same compound?
Answer: 65.9%

Question: And the viability, T/C [27]?
Answer: 67.7%

Question: What about the viability, T/C [28] of the same compound?
Answer: 72.7%

Question: What about the viability, T/C [29] of the same compound?
Answer: 66%

Question: And the viability, T/C [30]?
Answer: 8.11%

Question: And the viability, T/C [31]?
Answer: 65.8%

Question: What about the viability, T/C [32] of the same compound?
Answer: 67.4%

Question: What about the viability, T/C [33] of the same compound?
Answer: 58.5%

Question: What about the viability, T/C [34] of the same compound?
Answer: 63.1%

Question: What about the viability, T/C [35] of the same compound?
Answer: 62%

Question: What about the viability, T/C [36] of the same compound?
Answer: 16.7%

Question: Which results are given for `CCCS(=O)(=O)Nc1ccc(F)c(C(=O)c2c[nH]c3ncc(-c4ccc(Cl)cc4)cc23)c1F` + Cc1nc(NC(=O)N2CCCC2C(N)=O)sc1-c1ccnc(C(C)(C)C(F)(F)F)c1?
Answer: IC50 (second compound 0.0316 µM): 4.68 µM; IC50 (second compound 0.1 µM): 3.51 µM; IC50 (second compound 0.316 µM): 2.52 µM; IC50 (second compound 1 µM): 1.54 µM; IC50 (second compound 3.16 µM): 1.17 µM; IC50 (second compound 10 µM): 0.359 µM; viability, T/C [1]: 102%; viability, T/C [2]: 102%; viability, T/C [3]: 85.5%; viability, T/C [4]: 80%; viability, T/C [5]: 59.4%; viability, T/C [6]: 31.7%; viability, T/C [7]: 90.6%; viability, T/C [8]: 96.6%; viability, T/C [9]: 83.6%; viability, T/C [10]: 74.1%; viability, T/C [11]: 51.6%; viability, T/C [12]: 32.6%; viability, T/C [13]: 80.4%; viability, T/C [14]: 80.8%; viability, T/C [15]: 72.7%; viability, T/C [16]: 67.2%; viability, T/C [17]: 45.3%; viability, T/C [18]: 31.4%; viability, T/C [19]: 72.3%; viability, T/C [20]: 66.6%; viability, T/C [21]: 64.8%; viability, T/C [22]: 57.5%; viability, T/C [23]: 38.9%; viability, T/C [24]: 29%; viability, T/C [25]: 68.8%; viability, T/C [26]: 64.8%; viability, T/C [27]: 62.3%; viability, T/C [28]: 51.2%; viability, T/C [29]: 38.8%; viability, T/C [30]: 25.9%; viability, T/C [31]: 61.1%; viability, T/C [32]: 56%; viability, T/C [33]: 50.3%; viability, T/C [34]: 43%; viability, T/C [35]: 36.8%; viability, T/C [36]: 22.3%

Question: With `CNC(=O)c1ccc(N2C(=S)N(c3ccc(C#N)c(C(F)(F)F)c3)C(=O)C2(C)C)cc1F` + Cc1nc(NC(=O)N2CCCC2C(N)=O)sc1-c1ccnc(C(C)(C)C(F)(F)F)c1 as the compound, how does the IC50 (second compound 0.0316 µM) read?
Answer: > 10 µM

Question: And the IC50 (second compound 0.1 µM)?
Answer: > 10 µM

Question: And the IC50 (second compound 0.316 µM)?
Answer: > 10 µM

Question: What about the IC50 (second compound 1 µM) of the same compound?
Answer: > 10 µM

Question: And the IC50 (second compound 3.16 µM)?
Answer: > 10 µM

Question: What about the IC50 (second compound 10 µM) of the same compound?
Answer: > 10 µM

Question: And the viability, T/C [1]?
Answer: 100%

Question: And the viability, T/C [2]?
Answer: 94%

Question: And the viability, T/C [3]?
Answer: 93.3%

Question: And the viability, T/C [4]?
Answer: 95.7%

Question: And the viability, T/C [5]?
Answer: 93.8%

Question: And the viability, T/C [6]?
Answer: 77.2%

Question: What about the viability, T/C [7] of the same compound?
Answer: 86.1%

Question: And the viability, T/C [8]?
Answer: 88.3%

Question: What about the viability, T/C [9] of the same compound?
Answer: 89.9%

Question: What about the viability, T/C [10] of the same compound?
Answer: 85.6%

Question: And the viability, T/C [11]?
Answer: 76.5%

Question: What about the viability, T/C [12] of the same compound?
Answer: 57.1%

Question: And the viability, T/C [13]?
Answer: 74.3%

Question: What about the viability, T/C [14] of the same compound?
Answer: 77.5%

Question: And the viability, T/C [15]?
Answer: 74.3%

Question: And the viability, T/C [16]?
Answer: 76.8%

Question: What about the viability, T/C [17] of the same compound?
Answer: 77.2%

Question: And the viability, T/C [18]?
Answer: 57.8%

Question: And the viability, T/C [19]?
Answer: 71.5%

Question: What about the viability, T/C [20] of the same compound?
Answer: 69.8%

Question: And the viability, T/C [21]?
Answer: 68.3%

Question: What about the viability, T/C [22] of the same compound?
Answer: 65.9%

Question: And the viability, T/C [23]?
Answer: 69.5%

Question: What about the viability, T/C [24] of the same compound?
Answer: 57.6%

Question: And the viability, T/C [25]?
Answer: 68.4%

Question: And the viability, T/C [26]?
Answer: 68.8%

Question: What about the viability, T/C [27] of the same compound?
Answer: 68.2%

Question: And the viability, T/C [28]?
Answer: 68.7%

Question: What about the viability, T/C [29] of the same compound?
Answer: 66.4%

Question: What about the viability, T/C [30] of the same compound?
Answer: 51.4%

Question: And the viability, T/C [31]?
Answer: 62.1%

Question: And the viability, T/C [32]?
Answer: 62.5%

Question: What about the viability, T/C [33] of the same compound?
Answer: 63.2%

Question: And the viability, T/C [34]?
Answer: 66.4%

Question: And the viability, T/C [35]?
Answer: 64.1%

Question: And the viability, T/C [36]?
Answer: 49.9%
